According to patent US9388122B2, “Radioactive tyrosine derivative, method for producing same, labeling agent for positron imaging and medical agent for assessing grade of malignancy of tumor respectively composed of radioactive tyrosine derivative, and method for detecting tumor” (priority 2004, dated 2016):
“Also recorded” adds a separate entry of the source.

Experiments:
[1] = tested on: Human cervical cancer HeLa cells (cell strain: 15S3D); assay: Measurement of organ distribution in cancer-bearing mice; conditions: 1 hour after administration; for ratio of accumulation to the pancreas to accumulation to the tumor indicated by SUV (organ)/SUV (blood): D-form compared with L-form; for accumulation in the tumor, SUV (organ)/SUV (blood) / accumulation in the normal tissues, SUV (organ)/SUV (blood) / SUV (organ: tumor)/SUV (blood), D-form compared with L-form: HeLa-transplanted nude mice, tail vein; for accumulation in the tumor, SUV (organ)/SUV (blood): 10 MBq (11C) or 1 MBq (18F), gamma counter; for specificity of accumulation to tumor: from SUV (organ)/SUV (blood) of the organs
Experimental: Human cervical cancer HeLa cells (cell strain: 15S3D) were subcutaneously transplanted at 5×10^6 cells/mouse to the thighs of 7-week-old nude mice (BALB/cA Jcl-nu, Clea Japan, Inc). […] After 1 hour of the administration, the mice were decapitated to collect each organ (blood, heart, lung, liver, kidney, spleen, muscle, bone, small intestine, gastrointestinal tract, pancreas, brain, and tumor). The radioactivity of each organ was measured with an automatic gamma counter, and the weight of each organ was measured. SUV (standardized uptake value) that served as an index of the accumulating amounts of the administered compounds was determined. Furthermore, to correct the accumulating amounts, SUV (organ)/SUV (blood) was determined by dividing the SUV of each organ by the SUV of blood.

HeLa = assay: Planar measurement in cancer-bearing mice; conditions: 2.5 MBq tail vein, 60 minutes measurement; for accumulation in the tumor site (planar imaging): PPIS-4800; for accumulation in the normal tissues (planar imaging): compared with tumor site
Experimental: Measurement was performed (1 minute×60 frames) for 60 minutes immediately after the compound administration by use of a planar imaging system (PPIS-4800 manufactured by Hamamatsu Photonics K. K.) and indicated by images each comprising 10 frames integrated.

[2] = tested on: HeLa-K (cell strain: 15S3D) and HeLa-B (JCRB9004); assay: Relationship between tumor proliferation rate and degree of accumulation of labeled compound for positron imaging; type: in vivo, nude mice (BALB/cA Jcl-nu)
From the text: HeLa-K (cell strain: 15S3D) and HeLa-B (Health Science Research Resources Bank: JCRB9004) were subcutaneously transplanted at 5×10^6 cells/mouse and 2×10^7 cells/mouse, respectively, to the thighs of female BALB/cA Jcl-nu nude mice (HeLa-K: 7-week-old mice, HeLa-B: 5-week-old mice). The HeLa-K- and HeLa-B-transplanted mice, when becoming 9 week old after 2 weeks and 4 weeks of the transplantation, respectively, were used in the experiment. To examine the relationship between the accumulation of each labeled compound in the cancer-bearing mice and the proliferation rate of the tumor tissue, tumor size was daily measured. Doubling time (DT) was calculated according to the calculation formula: DT=t×log2 (V1/V0) proposed by Schwartz, wherein t denotes the number of days required for the tumor volume to reach V1 (mm^3) from V0 (mm^3), and the volume (mm^3) was calculated according to ½×length (mm)×width^2 (mm^2) from the major axis of the tumor. FIG. 7 is a graph showing the relationship between the number of days elapsed after HeLa transplantation and tumor volumes. […] The doubling times of HeLa-K and HeLa-B calculated from FIG. 7 were 4.4 days and 11.0 days, respectively.
The HeLa-K- and HeLa-B-transplanted nude mice were administered through the tail veins with [^18F]FDG, [^11C]choline, [^18F]FLT, L- and D-[^11C]Met, and L- and D-[^11C]MT at 1 MBq ([^18F]FDG and [^18F]FLT) or 10 MBq ([^11C]choline, L- and D-[^11C]Met, and L- and D-[^11C]MT). […] The radioactivities of the blood and tumor were measured with an automatic gamma counter, their weights were measured, and SUV was determined.
HeLa-K- and HeLa-B-transplanted nude mice were administered through the tail veins with L- and D-[^11C]ET, L- and D-[^18F]FMT, L-and D-[^18F]FET, and L- and D-[^18F]FPT at 10 MBq (L- and D-[^11C]ET) or 1 MBq (the others). […] The radioactivities of the blood and tumor were measured with an automatic gamma counter, their weights were measured, and SUV was determined.

tumor tissues = conditions: in vivo; cited from earlier work
cancer cells = conditions: cited from earlier work
[3] = HeLa-K versus HeLa-B tumors, SUV (organ)/SUV (blood), 1 hour after administration

Compound | ratio of accumulation to the pancreas to accumulation to the tumor indicated by SUV (organ)/SUV (blood) [1] | accumulation in the tumor, SUV (organ)/SUV (blood) [1] | accumulation in the normal tissues, SUV (organ)/SUV (blood) [1] | specificity of accumulation to tumor [1] | accumulation in the tumor site (planar imaging) (HeLa) | also measured
C[11CH2]Oc1ccc(C[C@@H](N)C(=O)O)cc1 [D-[^11C]ET, O—[^11C]ethyl-D-tyrosine] | lower in the D-form than in the L-form | observed in the tumor | low in the normal tissues except for the pancreas | specific to the tumor |  | 
[11CH3]Oc1ccc(C[C@@H](N)C(=O)O)cc1 [D-[^11C]MT, O—[^11C]methyl-D-tyrosine] | lower in the D-form than in the L-form | observed in the tumor | low in the normal tissues except for the pancreas | specific to the tumor | observed in the tumor site | SUV (organ: tumor)/SUV (blood), D-form compared with L-form [1]: higher value of SUV (organ: tumor)/SUV (blood) than the L-form; tumor-specific accumulation, D-form compared with L-form (planar imaging) (HeLa): accumulate in a manner specific to the tumor as compared with the L-form; accumulation in tumor, SUV (organ)/SUV (blood), HeLa-K versus HeLa-B ([2]; HeLa-K doubling time 4.4 days, HeLa-B 11.0 days, tail vein, 1 hour after administration): accumulated more in HeLa-K exhibiting faster proliferation; difference in the degree of accumulation depending on the difference in proliferation rate [2, 3]: remarkably large
[11CH3]SCC[C@@H](N)C(=O)O [D-[^11C]Met, reference compound] |  | observed in the tumor | also high in the normal tissues | low specificity to tumor | observed in the tumor site | accumulation in the normal tissues (planar imaging) (HeLa): significantly stronger in the normal tissues
N[C@H](Cc1ccc(OCC[18F])cc1)C(=O)O [D-[^18F]FET, O—[^18F]fluoroethyl-D-tyrosine] | lower in the D-form than in the L-form | observed in the tumor | low in the normal tissues except for the pancreas | specific to the tumor; also recorded: particularly high specificity to the tumor |  | SUV (organ: tumor)/SUV (blood), D-form compared with L-form [1]: higher value of SUV (organ: tumor)/SUV (blood) than the L-form; accumulation in tumor tissues (tumor tissues): does not accumulate in tumor tissues; uptake to cancer cells (cancer cells): low uptake to cancer cells
N[C@H](Cc1ccc(OC[18F])cc1)C(=O)O [D-[^18F]FMT, O—[^18F]fluoromethyl-D-tyrosine] |  |  |  | particularly high specificity to the tumor | observed in the tumor site | SUV (organ: tumor)/SUV (blood), D-form compared with L-form [1]: higher value of SUV (organ: tumor)/SUV (blood) than the L-form; tumor-specific accumulation, D-form compared with L-form (planar imaging) (HeLa): accumulate in a manner specific to the tumor as compared with the L-form; difference in the degree of accumulation depending on the difference in proliferation rate [2, 3]: remarkably large as compared with L-[^18F]FMT
N[C@H](Cc1ccc(OCCC[18F])cc1)C(=O)O [D-[^18F]FPT, O—[^18F]fluoropropyl-D-tyrosine] | lower in the D-form than in the L-form | observed in the tumor | low in the normal tissues except for the pancreas and bone | specific to the tumor |  | 
C[11CH2]Oc1ccc(C[C@H](N)C(=O)O)cc1 [L-[^11C]ET, O—[^11C]Ethyl-L-tyrosine, reference compound] |  | observed in the tumor | low in the normal tissues except for the pancreas | specific to the tumor |  | 
[11CH3]Oc1ccc(C[C@H](N)C(=O)O)cc1 [L-[^11C]MT, O—[^11C]methyl-L-tyrosine, reference compound] |  | observed in the tumor | low in the normal tissues except for the pancreas | specific to the tumor | observed in the tumor site | 
[11CH3]SCC[C@H](N)C(=O)O [L-[^11C]Met, L-[^11C]methionine, reference compound] |  | observed in the tumor | also high in the normal tissues | low specificity to tumor | observed in the tumor site | accumulation in the normal tissues (planar imaging) (HeLa): significantly stronger in the normal tissues; difference in the degree of accumulation depending on the difference in proliferation rate ([2]; mouse, in vivo): not detected
N[C@@H](Cc1ccc(OCC[18F])cc1)C(=O)O [L-[^18F]FET, O—[^18F]Fluoroethyl-L-tyrosine, reference compound] |  | observed in the tumor | low in the normal tissues except for the pancreas | specific to the tumor |  | 
N[C@@H](Cc1ccc(OC[18F])cc1)C(=O)O [L-[^18F]FMT, O—[^18F]fluoromethyl-L-tyrosine] |  |  |  |  | observed in the tumor site | 
N[C@@H](Cc1ccc(OCCC[18F])cc1)C(=O)O [L-[^18F]FPT, O—[^18F]Fluoropropyl-L-tyrosine, reference compound] |  | observed in the tumor | low in the normal tissues except for the pancreas and bone | specific to the tumor |  | 
[^18F]-2-fluoro-2-deoxy-D-glucose [[^18F]FDG, reference compound] |  |  |  |  |  | difference in the degree of accumulation depending on the difference in proliferation rate ([2]; mouse, in vivo): not detected
